Here are results for 16 compounds from patent publication US12091425B2 (AMGEN INC., priority 2016, dated 2024).

By IC50 is commonly meant the point on the concentration scale where inhibition reaches its midpoint.

In experiment [1] the target is T1, Mcl-1/Bim interaction, recombinant human Mcl-1 (171-327) (Homo sapiens, UniProt Q07820).
T1 construct: made in house
The experiment can be described thus: Cell free Mcl-1: Bim Affinity Assay (Mcl-1 HTRF). The format is binding. Conditions: TR-FRET, 0.1 nM Mcl-1 (171-327), 0.05 nM biotin-Bim (51-76). An outline of the steps:
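Read-out is time-resolved FRET after overnight incubation, using a biotin-labelled peptide from human Bim (51-76) as the binding partner; IC50 was derived from competition curves.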

The test system of experiment [2] is OPM-2 human multiple myeloma cell line. Kind of experiment: Cell Viability Assay (OPM-2 10 FBS). The format is cell-based. Particulars: Homo sapiens, OPM-2, 16 h, OPM-2 cells, 16 h incubation, CellTiter-Glo. An outline of the steps: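 ATP-based luminescence (CellTiter-Glo) measured after a 16 h compound treatment of OPM-2 cells seeded at 3000 cells/well in 10% FBS medium. IC50 values derived by 4-parameter logistic fitting of serial dilutions.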
On the technique in general: In ATP-based viability assays light output follows the ATP content of the culture.

Molecules are shown by their SMILES.

T1 sequence (Q07820 171-327): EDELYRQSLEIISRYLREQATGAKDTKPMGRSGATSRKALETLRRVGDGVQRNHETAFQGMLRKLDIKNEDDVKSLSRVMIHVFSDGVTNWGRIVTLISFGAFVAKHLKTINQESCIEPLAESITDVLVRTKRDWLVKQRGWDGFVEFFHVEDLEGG

With `C[C@@H]1CC/C=C/[C@H](OCc2ncccn2)[C@@H]2CC[C@H]2CN2C[C@@]3(CCCc4cc(Cl)ccc43)COc3ccc(cc32)C(=O)NS1(=O)=O` [Example 956, (1S,3′R,6′R,7′S,8′E,12′R)-6-chloro-12′-methyl-7′-(2-pyrimidinylmethoxy)-3,4-dihydro-2H,15′H-spiro[naphthalene-1,22′-[20]oxa[13]thia[1,14]diazatetracyclo[14.7.2.0^3,6.0^19,24]pentacosa [8,16,18,24]tetraen]-15′-one 13′,13′-dioxide], the IC50 in experiment [1] was determined as 0.000275 µM; in experiment [2] it was 0.211 µM.
For the compound `C[C@@H]1CC/C=C/[C@H](OCc2nnn(C)n2)[C@@H]2CC[C@H]2CN2C[C@@]3(CCCc4cc(Cl)ccc43)COc3ccc(cc32)C(=O)NS1(=O)=O` [Example 957, (1S,3′R,6′R,7′S,8′E,12′R)-6-chloro-12′-methyl-7′-((2-methyl-2H-tetrazol-5-yl)methoxy)-3,4-dihydro-2H,15′H-spiro[naphthalene-1,22′-[20]oxa[13]thia[1,14]diazatetracyclo[14.7.2.0^3,6.0^19,24]pentacosa [8,16,18,24]tetraen]-15′-one 13′,13′-dioxide], the half-maximal inhibitory concentration (IC50) in experiment [1] amounted to 0.000441 µM; in experiment [2], 0.308 µM.
Taken in the same sequence, the figures for `C[C@@H]1CC/C=C/[C@H](OCc2nc[nH]n2)[C@@H]2CC[C@H]2CN2C[C@@]3(CCCc4cc(Cl)ccc43)COc3ccc(cc32)C(=O)NS1(=O)=O` [Example 958, (1S,3′R,6′R,7′S,8′E,12′R)-6-chloro-12′-methyl-7′-(4H-1,2,4-triazol-3-ylmethoxy)-3,4-dihydro-2H,15′H-spiro[naphthalene-1,22′-[20]oxa[13]thia[1,14]diazatetracyclo[14.7.2.0^3,6.0^19,24]pentacosa [8,16,18,24]tetraen]-15′-one 13′,13′-dioxide] were 0.000253 µM and 3.89 µM.
In the case of `CC[C@@H]1CC/C=C/[C@H](OCc2nccn2C)[C@@H]2CC[C@H]2CN2C[C@@]3(CCCc4cc(Cl)ccc43)COc3ccc(cc32)C(=O)NS1(=O)=O` [Example 965, (1S,3′R,6′R,7′S,8′E,12′R)-6-chloro-12′-ethyl-7′-((1-methyl-1H-IMIDAZOL-2-yl)methoxy)-3,4-dihydro-2H,15′H-spiro[naphthalene-1,22′-[20]oxa[13]thia[1,14]diazatetracyclo[14.7.2.0^3,6.0^19,24]pentacosa [8,16,18,24]tetraen]-15′-one 13′,13′-dioxide], the 50% inhibitory concentration (IC50) in experiment [1] is 0.000403 µM; in experiment [2] it was 0.693 µM.
With `CC[C@@H]1CC/C=C/[C@H](OCc2nnc(C)o2)[C@@H]2CC[C@H]2CN2C[C@@]3(CCCc4cc(Cl)ccc43)COc3ccc(cc32)C(=O)NS1(=O)=O` [Example 966, (1S,3′R,6′R,7′S,8′E,12′R)-6-chloro-12′-ethyl-7′-((5-methyl-1,3,4-oxadiazol-2-yl)methoxy)-3,4-dihydro-2H,15′H-spiro[naphthalene-1,22′-[20]oxa[13]thia[1,14]diazatetracyclo[14.7.2.0^3,6.0^19,24]pentacosa [8,16,18,24]tetraen]-15′-one 13′,13′-dioxide], the IC50 amounted to 0.000349 µM in experiment [1] and 0.754 µM in experiment [2].
For `CC[C@@H]1CC/C=C/[C@H](OCc2cc(C)nn2C)[C@@H]2CC[C@H]2CN2C[C@@]3(CCCc4cc(Cl)ccc43)COc3ccc(cc32)C(=O)NS1(=O)=O` [Example 967, (1S,3′R,6′R,7′S,8′E,12′R)-6-chloro-7′-((1,3-dimethyl-1H-pyrazol-5-yl)methoxy)-12′-ethyl-3,4-dihydro-2H,15′H-spiro[naphthalene-1,22′-[20]oxa[13]thia[1,14]diazatetracyclo[14.7.2.0^3,6.0^19,24]pentacosa [8,16,18,24]tetraen]-15′-one 13′,13′-dioxide], the IC50 in experiment [1] came out at 0.00106 µM; in experiment [2], 0.461 µM.
In the same order, the values of `CC[C@@H]1CC/C=C/[C@H](OCc2ncccn2)[C@@H]2CC[C@H]2CN2C[C@@]3(CCCc4cc(Cl)ccc43)COc3ccc(cc32)C(=O)NS1(=O)=O` [Example 977, (1S,3′R,6′R,7′S,8′E,12′R)-6-chloro-12′-ethyl-7′-(2-pyrimidinylmethoxy)-3,4-dihydro-2H,15′H-spiro[naphthalene-1,22′-[20]oxa[13]thia[1,14]diazatetracyclo[14.7.2.0^3,6.0^19,24]pentacosa [8,16,18,24]tetraen]-15′-one 13′,13′-dioxide] are 0.000329 µM and 0.266 µM.
Taken in the same sequence, the figures for `CC[C@@H]1CC/C=C/[C@H](OCc2ncco2)[C@@H]2CC[C@H]2CN2C[C@@]3(CCCc4cc(Cl)ccc43)COc3ccc(cc32)C(=O)NS1(=O)=O` [Example 986, (1S,3′R,6′R,7′S,8′E,12′R)-6-chloro-12′-ethyl-7′-(1,3-oxazol-2-ylmethoxy)-3,4-dihydro-2H,15′H-spiro[naphthalene-1,22′-[20]oxa[13]thia[1,14]diazatetracyclo[14.7.2.0^3,6.0^19,24]pentacosa [8,16,18,24]tetraen]-15′-one 13′,13′-dioxide] were 0.000476 µM and 0.271 µM.
As to `CC[C@@H]1CC/C=C/[C@H](OCc2nnn(C)n2)[C@@H]2CC[C@H]2CN2C[C@@]3(CCCc4cc(Cl)ccc43)COc3ccc(cc32)C(=O)NS1(=O)=O` [Example 987, (1S,3′R,6′R,7′S,8′E,12′R)-6-chloro-12′-ethyl-7′-((2-methyl-2H-tetrazol-5-yl)methoxy)-3,4-dihydro-2H,15′H-spiro[naphthalene-1,22′-[20]oxa[13]thia[1,14]diazatetracyclo[14.7.2.0^3,6.0^19,24]pentacosa [8,16,18,24]tetraen]-15′-one 13′,13′-dioxide], the concentration for half-maximal inhibition (IC50) in experiment [1] is 0.000616 µM; in experiment [2], 0.393 µM.
In the same order, the values of `CC[C@@H]1CC/C=C/[C@H](OCc2nnnn2C)[C@@H]2CC[C@H]2CN2C[C@@]3(CCCc4cc(Cl)ccc43)COc3ccc(cc32)C(=O)NS1(=O)=O` [Example 988, (1S,3′R,6′R,7′S,8′E,12′R)-6-chloro-12′-ethyl-7′-((1-methyl-1H-tetrazol-5-yl)methoxy)-3,4-dihydro-2H,15′H-spiro[naphthalene-1,22′-[20]oxa[13]thia[1,14]diazatetracyclo[14.7.2.0^3,6.0^19,24]pentacosa [8,16,18,24]tetraen]-15′-one 13′,13′-dioxide] are 0.000536 µM and 1 µM.
Regarding `CC[C@@H]1CC/C=C/[C@H](OCCS(=O)(=O)N(C)C)[C@@H]2CC[C@H]2CN2C[C@@]3(CCCc4cc(Cl)ccc43)COc3ccc(cc32)C(=O)NS1(=O)=O` [Example 989, 2-(((1S,3′R,6′R,7′S,8′E,12′R)-6-chloro-12′-ethyl-13′,13′-dioxido-15′-oxo-3,4-dihydro-2H-spiro[naphthalene-1,22′-[20]oxa[13]thia[1,14]diazatetracyclo[14.7.2.0^3,6.0^19,24]pentacosa [8,16,18,24]tetraen]-7′-yl)oxy)-N,N-dimethylethanesulfonamide], the IC50 in experiment [1] was determined as 0.000851 µM; in experiment [2], 0.331 µM.
In the case of `CC[C@@H]1CC/C=C/[C@H](OCc2nccs2)[C@@H]2CC[C@H]2CN2C[C@@]3(CCCc4cc(Cl)ccc43)COc3ccc(cc32)C(=O)NS1(=O)=O` [Example 990, (1S,3′R,6′R,7′S,8′E,12′R)-6-chloro-12′-ethyl-7′-(1,3-thiazol-2-ylmethoxy)-3,4-dihydro-2H,15′H-spiro[naphthalene-1,22′-[20]oxa[13]thia[1,14]diazatetracyclo[14.7.2.0^3,6.0^19,24]pentacosa [8,16,18,24]tetraen]-15′-one 13′,13′-dioxide], the IC50 in experiment [1] worked out at 0.00309 µM; in experiment [2], 2.23 µM.
`CC[C@@H]1CC/C=C/[C@H](OCC(=O)O)[C@@H]2CC[C@H]2CN2C[C@@]3(CCCc4cc(Cl)ccc43)COc3ccc(cc32)C(=O)NS1(=O)=O` [Example 992, (((1S,3′R,6′R,7′S,8′E,12′R)-6-chloro-12′-ethyl-13′,13′-dioxido-15′-oxo-3,4-dihydro-2H-spiro[naphthalene-1,22′-[20]oxa[13]thia[1,14]diazatetracyclo[14.7.2.0^3,6.0^19,24]pentacosa [8,16,18,24]tetraen]-7′-yl)oxy)acetic Acid]: the figures for the IC50 in experiment [1] and in experiment [2] were 0.000103 µM and 2.34 µM, respectively.
With `CC[C@@H]1CCCC[C@H](OCC(=O)OC)[C@@H]2CC[C@H]2CN2C[C@@]3(CCCc4cc(Cl)ccc43)COc3ccc(cc32)C(=O)NS1(=O)=O` [Example 993, methyl (((1S,3′R,6′R,7′S,12′R)-6-chloro-12′-ethyl-13′,13′-dioxido-15′-oxo-3,4-dihydro-2H-spiro[naphthalene-1,22′-[20]oxa[13]thia[1,14]diazatetracyclo[14.7.2.0^3,6.0^19,24]pentacosa [16,18,24]trien]-7′-yl)oxy)acetate], the IC50 came out at 0.00201 µM in experiment [1] and 0.373 µM in experiment [2].
In the same order, the values of `CC[C@@H]1CC/C=C/[C@H](OCC(=O)NCCN(C)C)[C@@H]2CC[C@H]2CN2C[C@@]3(CCCc4cc(Cl)ccc43)COc3ccc(cc32)C(=O)NS1(=O)=O` [Example 995, 2-(((1S,3′R,6′R,7′S,8′E,12′R)-6-chloro-12′-ethyl-13′,13′-dioxido-15′-oxo-3,4-dihydro-2H-spiro[naphthalene-1,22′-[20]oxa[13]thia[1,14]diazatetracyclo[14.7.2.0^3,6.0^19,24]pentacosa [8,16,18,24]tetraen]-7′-yl)oxy)-N-(2-(dimethylamino)ethyl)acetamide] are 0.000872 µM and 1.68 µM.
Take `CC[C@@H]1CC/C=C/[C@H](OCC(=O)NCCO)[C@@H]2CC[C@H]2CN2C[C@@]3(CCCc4cc(Cl)ccc43)COc3ccc(cc32)C(=O)NS1(=O)=O` [Example 996, 2-(((1S,3′R,6′R,7′S,8′E,12′R)-6-chloro-12′-ethyl-13′,13′-dioxido-15′-oxo-3,4-dihydro-2H-spiro[naphthalene-1,22′-[20]oxa[13]thia[1,14]diazatetracyclo[14.7.2.0^3,6.0^19,24]pentacosa [8,16,18,24]tetraen]-7′-yl)oxy)-N-(2-hydroxyethyl)acetamide]: the figures for the IC50 in experiment [1] and in experiment [2] were 0.000487 µM and 8.19 µM, respectively.
